Test results: US9050344B2, “Therapeutic compounds” (Gilead Sciences, Inc., priority 2013, dated 2015)

How the values were obtained:
HIV-IIIb = assay: Test A: Antiviral Assay in MT4 Cells; format: cell-based, HIV-1; conditions: Human immunodeficiency virus 1, IIIB, MT4, 120 h, read-out: % inhibition at 3 μM
Method: Test A: Antiviral Assay in MT4 Cells
For the antiviral assay, 40 μL of 1× test concentration of 3-fold serially diluted compound in culture medium with 10% FBS was added to each well of a 384-well plate (10 concentrations) in quadruplicate. MT-4 cells were next mixed with HIV-IIIb at an m.o.i of 0.003 for 1 hour, after which time 35 μL of virus/cell mixture (2000 cells) was immediately added to each well containing 40 μL of diluted compound. The plates were then incubated at 37° C. for 5 days. After 5 days of incubation, 25 μl of 2× concentrated CellTiter-Glo™ Reagent (catalog #G7571, Promega Biosciences, Inc., Madison, Wis.) was added to each well containing MT-4 cells. Cell lysis was carried out by incubating at room temperature for 10 min and then chemiluminescence was read.

[1] = Test B: Cytotoxicity Assay (protocol of Test A, uninfected cells); format: cell-based; conditions: human, uninfected MT-4 cells, CellTiter-Glo
Method: Test B: Cytotoxicity Assay Compound cytotoxicity and the corresponding CC50 values was determined using the same protocol as described in the antiviral assay (Test A) except that uninfected cells were used.

SMILES | inhibition at 3 µM (HIV-IIIb) [%] | CC50 at 5 days [1] [µM]
Cc1nc([C@H](Cc2cc(F)cc(F)c2)NC(=O)Cn2nc(C(F)(F)F)c3c2C(F)(F)[C@@H]2C[C@H]32)c(-c2cccc3c(NS(C)(=O)=O)nn(C)c23)cc1N [Compound 45, N—((S)-1-(5-amino-6-methyl-3-(1-methyl-3-(methylsulfonamido)-1H-indazol-7-yl)pyridin-2-yl)-2-(3,5-difluorophenyl)ethyl)-2-((3bS,4aR)-5,5-difluoro-3-(trifluoromethyl)-3b,4,4a,5-tetrahydro-1H-cyclopropa[3,4]cyclopenta[1,2-c]pyrazol-1-yl)acetamide] | 110 | 21.5
Cn1nc(NS(C)(=O)=O)c2cccc(-c3cc(N)c(C#N)nc3[C@H](Cc3cc(F)cc(F)c3)NC(=O)Cn3nc(C(F)(F)F)c4c3C(F)(F)[C@@H]3C[C@H]43)c21 [Compound 46F, N—((S)-1-(5-amino-6-cyano-3-(1-methyl-3-(methylsulfonamido)-1H-indazol-7-yl)pyridin-2-yl)-2-(3,5-difluorophenyl)ethyl)-2-((3bS,4aR)-5,5-difluoro-3-(trifluoromethyl)-3b,4,4a,5-tetrahydro-1H-cyclopropa[3,4]cyclopenta[1,2-c]pyrazol-1-yl)acetamide] | 109 | 12.5
Cc1nc([C@H](Cc2cc(F)cc(F)c2)NC(=O)Cn2nc(C(F)F)c3c2C(F)(F)[C@@H]2C[C@H]32)c(-c2ccc(Cl)c3c(NS(C)(=O)=O)nn(C)c23)cc1N [Compound 47C, N—((S)-1-(5-amino-3-(4-chloro-1-methyl-3-(methylsulfonamido)-1H-indazol-7-yl)-6-methylpyridin-2-yl)-2-(3,5-difluorophenyl)ethyl)-2-((3bS,4aR)-3-(difluoromethyl)-5,5-difluoro-3b,4,4a,5-tetrahydro-1H-cyclopropa[3,4]cyclopenta[1,2-c]pyrazol-1-yl)acetamide] | 107 | 18.1
CC(=O)Nc1cc(-c2ccc(Cl)c3c(NS(C)(=O)=O)nn(C)c23)c([C@H](Cc2cc(F)cc(F)c2)NC(=O)Cn2nc(C(F)F)c3c2C(F)(F)[C@@H]2C[C@H]32)nc1C [Compound 48, N—((S)-1-(5-acetamido-3-(4-chloro-1-methyl-3-(methylsulfonamido)-1H-indazol-7-yl)-6-methylpyridin-2-yl)-2-(3,5-difluorophenyl)ethyl)-2-((3bS,4aR)-3-(difluoromethyl)-5,5-difluoro-3b,4,4a,5-tetrahydro-1H-cyclopropa[3,4]cyclopenta[1,2-c]pyrazol-1-yl)acetamide] | 93 | 20.7
Cn1nc(NS(C)(=O)=O)c2c(Cl)ccc(-c3cc(N)cnc3[C@H](Cc3cc(F)cc(F)c3)NC(=O)Cn3nc(C(F)F)c4c3C(F)(F)[C@@H]3C[C@H]43)c21 [Compound 49C, N—((S)-1-(5-amino-3-(4-chloro-1-methyl-3-(methylsulfonamido)-1H-indazol-7-yl)pyridin-2-yl)-2-(3,5-difluorophenyl)ethyl)-2-((3bS,4aR)-3-(difluoromethyl)-5,5-difluoro-3b,4,4a,5-tetrahydro-1H-cyclopropa[3,4]cyclopenta[1,2-c]pyrazol-1-yl)acetamide] | 93 | 28.1
CN(C)c1cnc([C@H](Cc2cc(F)cc(F)c2)NC(=O)Cn2nc(C(F)F)c3c2C(F)(F)[C@@H]2C[C@H]32)c(-c2ccc(Cl)c3c(NS(C)(=O)=O)nn(C)c23)c1 [Compound 50, N—((S)-1-(3-(4-chloro-1-methyl-3-(methylsulfonamido)-1H-indazol-7-yl)-5-(dimethylamino)pyridin-2-yl)-2-(3,5-difluorophenyl)ethyl)-2-((3bS,4aR)-3-(difluoromethyl)-5,5-difluoro-3b,4,4a,5-tetrahydro-1H-cyclopropa[3,4]cyclopenta[1,2-c]pyrazol-1-yl)acetamide] | 86 | 34.2
CNc1cnc([C@H](Cc2cc(F)cc(F)c2)NC(=O)Cn2nc(C(F)F)c3c2C(F)(F)[C@@H]2C[C@H]32)c(-c2ccc(Cl)c3c(NS(C)(=O)=O)nn(C)c23)c1 [Compound 51, N—((S)-1-(3-(4-chloro-1-methyl-3-(methylsulfonamido)-1H-indazol-7-yl)-5-(methylamino)pyridin-2-yl)-2-(3,5-difluorophenyl)ethyl)-2-((3bS,4aR)-3-(difluoromethyl)-5,5-difluoro-3b,4,4a,5-tetrahydro-1H-cyclopropa[3,4]cyclopenta[1,2-c]pyrazol-1-yl)acetamide] | 79 | 16.6
Cn1nc(NS(C)(=O)=O)c2c(Cl)ccc(-c3cc(N)cnc3[C@H](Cc3cc(F)cc(F)c3)NC(=O)Cn3nc(C(F)(F)F)c4c3C(F)(F)[C@@H]3C[C@H]43)c21 [Compound 52, N—((S)-1-(5-amino-3-(4-chloro-1-methyl-3-(methylsulfonamido)-1H-indazol-7-yl)pyridin-2-yl)-2-(3,5-difluorophenyl)ethyl)-2-((3bS,4aR)-5,5-difluoro-3-(trifluoromethyl)-3b,4,4a,5-tetrahydro-1H-cyclopropa[3,4]cyclopenta[1,2-c]pyrazol-1-yl)acetamide] | 104 | 21.5
Cn1nc(NS(C)(=O)=O)c2c(Cl)ccc(-c3cc(N)c(Cl)nc3[C@H](Cc3cc(F)cc(F)c3)NC(=O)Cn3nc(C(F)F)c4c3C(F)(F)[C@@H]3C[C@H]43)c21 [Compound 53B, N—((S)-1-(5-amino-6-chloro-3-(4-chloro-1-methyl-3-(methylsulfonamido)-1H-indazol-7-yl)pyridin-2-yl)-2-(3,5-difluorophenyl)ethyl)-2-((3bS,4aR)-3-(difluoromethyl)-5,5-difluoro-3b,4,4a,5-tetrahydro-1H-cyclopropa[3,4]cyclopenta[1,2-c]pyrazol-1-yl)acetamide] | 91 | 15
Cn1nc(NS(C)(=O)=O)c2c(Cl)ccc(-c3cc(N)c(Cl)nc3[C@H](Cc3cc(F)cc(F)c3)NC(=O)Cn3nc(C(F)(F)F)c4c3C(F)(F)[C@@H]3C[C@H]43)c21 [Compound 54, N—((S)-1-(5-amino-6-chloro-3-(4-chloro-1-methyl-3-(methylsulfonamido)-1H-indazol-7-yl)pyridin-2-yl)-2-(3,5-difluorophenyl)ethyl)-2-((3bS,4aR)-5,5-difluoro-3-(trifluoromethyl)-3b,4,4a,5-tetrahydro-1H-cyclopropa[3,4]cyclopenta[1,2-c]pyrazol-1-yl)acetamide] | 92 | 12.1
CSc1cnc([C@H](Cc2cc(F)cc(F)c2)NC(=O)Cn2nc(C(F)F)c3c2C(F)(F)[C@@H]2C[C@H]32)c(-c2cccc3c(NS(C)(=O)=O)nn(C)c23)n1 [Compound 55G, 2-((3bS,4aR)-3-(difluoromethyl)-5,5-difluoro-3b,4,4a,5-tetrahydro-1H-cyclopropa[3,4]cyclopenta[1,2-c]pyrazol-1-yl)-N—((S)-2-(3,5-difluorophenyl)-1-(3-(1-methyl-3-(methylsulfonamido)-1H-indazol-7-yl)-5-(methylthio)pyrazin-2-yl)ethyl)acetamide] | 107 | 22.1
Cn1nc(NS(C)(=O)=O)c2c(Cl)ccc(-c3ccc(NCCO)nc3[C@H](Cc3cc(F)cc(F)c3)NC(=O)Cn3nc(C(F)(F)F)c4c3C(F)(F)[C@@H]3C[C@H]43)c21 [Compound 56] | 95 | 24.3
CN(CCO)c1ccc(-c2ccc(Cl)c3c(NS(C)(=O)=O)nn(C)c23)c([C@H](Cc2cc(F)cc(F)c2)NC(=O)Cn2nc(C(F)F)c3c2C(F)(F)[C@@H]2C[C@H]32)n1 [Compound 57G, N—((S)-1-(3-(4-chloro-1-methyl-3-(methylsulfonamido)-1H-indazol-7-yl)-6-((2-hydroxyethyl)(methyl)amino)pyridin-2-yl)-2-(3,5-difluorophenyl)ethyl)-2-((3bS,4aR)-3-(difluoromethyl)-5,5-difluoro-3b,4,4a,5-tetrahydro-1H-cyclopropa[3,4]cyclopenta[1,2-c]pyrazol-1-yl)acetamide] | 81 | 29.5
CN(CCO)c1ccc(-c2ccc(Cl)c3c(NS(C)(=O)=O)nn(C)c23)c([C@H](Cc2cc(F)cc(F)c2)NC(=O)Cn2nc(C(F)(F)F)c3c2C(F)(F)[C@@H]2C[C@H]32)n1 [Compound 58, N—((S)-1-(3-(4-chloro-1-methyl-3-(methylsulfonamido)-1H-indazol-7-yl)-6-((2-hydroxyethyl)(methyl)amino)pyridin-2-yl)-2-(3,5-difluorophenyl)ethyl)-2-((3bS,4aR)-5,5-difluoro-3-(trifluoromethyl)-3b,4,4a,5-tetrahydro-1H-cyclopropa[3,4]cyclopenta[1,2-c]pyrazol-1-yl)acetamide] | 86 | 12.8
Cn1nc(NS(C)(=O)=O)c2c(Cl)ccc(-c3nc(N)cnc3C(Cc3cc(F)cc(F)c3)NC(=O)Cn3nc(C(F)F)c4c3C(F)(F)[C@@H]3C[C@H]43)c21 (stereo partly drawn) [Compound 59D, N-(1-(5-amino-3-(4-chloro-1-methyl-3-(methylsulfonamido)-1H-indazol-7-yl)pyrazin-2-yl)-2-(3,5-difluorophenyl)ethyl)-2-((3bS,4aR)-3-(difluoromethyl)-5,5-difluoro-3b,4,4a,5-tetrahydro-1H-cyclopropa[3,4]cyclopenta[1,2-c]pyrazol-1-yl)acetamide] | 85 | > 46.8
